Paper PMC6290777, “Inhalation of the prodrug PI3K inhibitor CL27c improves lung function in asthma and fibrosis” (Nature Communications, 2018)

Experiments:
[1] = tested on: glucocorticoid-resistant neutrophilic asthma; experiment: Glucocorticoid-resistant asthma model; format: in vivo, BALB/c mice; conditions: CL27c 2 mg/ml aerosol
Description: BALF was performed to obtain leukocytes from alveolar space. The trachea was exposed and a 1.7-mm-outside-diameter polyethylene catheter was inserted. BAL was performed by washing the lungs three-times with three different 500 µl aliquots of PBS. BALF samples were centrifuged at 600 × g for 10 min at 4 °C on a histology glass slide and stained with Diff Quick (MICROPTIC, #DQ-ST). The number of leukocytes and differential counts of different population were obtained evaluating the percentage leukocyte populations over the total cell number.
Mice were anesthetized with a subcutaneous injection of ketamine and xylazine (130 mg/Kg ketamine and 8.5 mg/Kg xylazine) to maintain spontaneous breathing under anesthesia. Mice were tracheostomized, placed in a body plethysmograph and connected to a computer-controlled ventilator (Forced Pulmonary Maneuver System®, Buxco Research Systems©, Wilmington, North Carolina USA). First, an average breathing frequency of 160 breaths/min was imposed to the anesthetized animal by a pressure-controlled ventilation until a regular breathing pattern and complete expiration at each breathing cycle was obtained. Under mechanical respiration, respiratory flow and airway pressure were measured to compute dynamic compliance (Cdyn) and lung resistance (RL). To measure the TLC, pressure–volume maneuvers were performed, where lungs were inflated to a standard pressure of +30 cm H2O and then let slowly exhale until a negative pressure of −30 cm H2O was reached. To measure the FEV Fast-Flow Volume maneuvers was performed. In this maneuver, lungs were first inflated to +30 cm H2O (TLC) and, immediately, a negative pressure (−30 cm H2O) was applied in order to enforce expiration. To evaluate AHR, the same mice used in previous maneuvers (basal condition) received Metacholine, 1 mg/Kg (Acetyl-β-methylcholine chloride, A-2251, Sigma-Aldrich St.Louis, MO,USA) i.v., and 20 sec after, a new set of maneuvers were conducted to assess RL changes. Suboptimal maneuvers were rejected and for each test in every single mouse at least three acceptable maneuvers were conducted to obtain a reliable mean for all numeric parameters.
IL-5, IL-13, eotaxin, TGF-β, KC, IL-17A, and MCP-1 levels in the BALF and anti-OVA IgE levels in serum were measured by ELISA technique using commercial DuoSet kits R&D Systems according to the instructions of the manufacturer. Results were expressed in levels of cytokines per ml of […] (pg/ml) or arbitrary units (A.U.).
On day 1 BALB/c mice received systemic immunization by subcutaneous injection of 20 µg of chicken egg ovalbumin (OVA grade V, >98% pure; Sigma, St Louis, MO) in saline, emulsified in 75 µL CFA (Complete Freund’s Adjuvant; Sigma-Aldrich) (Figure 5)[52]. On days 25–28 mice were exposed to aerosolised ovalbumin (1% in saline) for 20 min per day. Mice were exposed during 30 min to aerosolized CL27c (2 mg/ml dissolved in 0.5 % tylaxopol/saline solution) or vehicle (0.5% tyloxapol/saline solution), or to systemic treatment with dexamethasone (5 mg/kg i.p. injection). Untreated control groups included mice challenged with PBS alone. On day 29, mice were sacrificed, and samples were collected for further analysis.
The left lung was removed and fixed in 4% neutral phosphate-buffered formalin (pH 7.4)[10]. The tissues were dehydrated gradually in ethanol, embedded in paraffin, cut into 4 µm sections, stained with H&E, Gomori’s trichrome and periodic acid schiff (PAS), and examined under light microscopy by a pathologist in a double blinded manner. Images of lung sections were captured with a digital camera (Optronics DEI-470) connected to a microscope (Olympus IX70) with a magnification of ×40 or ×100. Inflammation was scored according to modification of existing protocols[53] and to the histopathology criteria reported in Supplementary Table 4.

[2] = tested on: Akt phosphorylation (Ser473) in CLL cells; experiment: Akt phosphorylation in CLL cells stimulated with anti-IgM; format: cell-based, human; conditions: CL27c 10 nM–10 µM
Description: CLL cells (#Hs 505.T, ATCC® CRL-7306™) were cultured with RPMI additioned with 10% FBS and 100 μg/ml penicillin and streptomycin. The day of the assay CLL cells were seeded in 96-well plate at a concentration of 7 × 10^4 cells/ml in starving medium, RPMI free. The cells were starved for 6 h and subsequently pretreated for 1.5 h with CL27c at different concentrations. The cells were stimulated for 15 min with 15 μg/ml of goat anti-Human IgM-MU chain specific antibody (Sigma-Aldrich #I0759-1MG) and proteins were extracted with Laemmli buffer.
For all cell types, phosphorylated Akt (P-Akt, Ser 473, 1:100, Cell Signaling Technology #4060) production was detected by western blot analysis and quantified with ChemiDoc™ XRS system. P-Akt signals are normalized on endogenous. For the calculation of EC50 values, a percentage of residual P-Akt was calculated for each inhibitor concentration by using the control vehicle as 100%. To derive the EC50, all data were plotted on a dose response curve (Graph Pad software) and the EC50 was calculated by using the non-linear regression fit (equation [log agonist] vs response–variable slope).
Supplementary Figure 3: Inhibition of Akt phosphorylation at Ser473 (pAkt473) […]
panel). […] The respective EC50 was calculated by using nonlinear

[3] = tested on: fMLP-activated LPS-primed neutrophils; experiment: ROS production by fMLP-activated LPS-primed neutrophils; format: cell-based, mouse; conditions: fMLP 2.5 μM; CL27c 1 and 10 µM
Description: Production of ROS was determined by primary isolated neutrophils (5 × 10^6/mL) (as described above) with lipopolysaccharide (1 μg/mL) for 1 h and then preincubating them with luminol (20 μg/mL) and horseradish peroxidase (35 μg/mL) in RPMI medium plus 10% FCS. The cells were subsequently stimulated with 2.5 μM formyl-methionyl-leucyl-phenylalanine (fMLP, Sigma-Aldrich), and light emission was recorded every 5 sec for a period of 300 sec in a Berthold MicroLumat Plus luminometer (Berthold Technologies).

SMILES: COC(=O)c1cccc(Cn2cc(-c3cccc4c(=O)cc(N5CCOCC5)[nH]c34)nn2)c1 [CL27c]
- abundance of cytokines (MCP-1, IL-17A, KC, Eotaxin, IFN-γ) [1]: could not block systemic production of these mediators
- airway hyperreactivity and lung resistance ([1]; dexamethasone 5 mg/kg i.p.): without modifying either airway hyperreactivity or lung resistance
- histopathology: overall score of lung damage / tissue inflammation ([1]; dexamethasone 5 mg/kg i.p.): significantly reduce the overall score of lung damage
- lung compliance (Cdyn) ([1]; dexamethasone 5 mg/kg i.p.): restored normal lung compliance
- number of inflammatory cells in BALF ([1]; dexamethasone 5 mg/kg i.p.): reduce the number of inflammatory cells in BALF
- Akt/PKB phosphorylation [2]: readily reduced Akt/PKB phosphorylation
- reactive oxygen species production (respiratory burst) [3]: efficiently and dose-dependently inhibited reactive oxygen species production
